Test results as given in ChEMBL document CHEMBL3217714, “Synthesis and anti HSV-1 evaluation of novel indole-3,4-diones” (Medchemcomm, 2011).
Activity calls are given as the source filed them. No cut-off for these calls is given here.

Tests used:
Human alphaherpesvirus 1 [1] = assay: Antiviral activity against HSV-1 infected in African green monkey Vero cells assessed as reduction in plaque formation at 10 to 100 uM by inverted microscopy; format: functional, organism-based
Vero [2] = assay: Cytotoxicity against African green monkey Vero cells at 1 to 100 uM compound in DMSO by trypan blue exclusion assay; format: cell-based; details: chlorocebus sabaeus
Vero [3] = assay: Cytotoxicity against African green monkey Vero cells at 40 to 100 uM compound in water by trypan blue exclusion assay; format: cell-based; details: chlorocebus sabaeus
Human alphaherpesvirus 1 [4] = assay: Antiviral activity against HSV-1 infected in African green monkey Vero cells at 10 to 100 uM by plaque reduction assay; format: functional, organism-based

Row | Compound | Activity (Human alphaherpesvirus 1 [1]) | Activity (Vero [2]) | Activity (Vero [3]) | inhibition (Human alphaherpesvirus 1 [4])
1 | CC1CC(=O)C2C(=O)C(C)N=C2C1 (stereo not given) | Active | Non-toxic | Non-toxic | Dose-dependent effect
2 | CC1N=C2CCCC(=O)C2C1=O (stereo not given) |  | Non-toxic | Non-toxic | Dose-dependent effect
3 | CC1N=C2CC(C)(C)CC(=O)C2C1=O (stereo not given) |  | Non-toxic | Non-toxic | Dose-dependent effect
